Assay results taken from patent US9522198B2, “Methods and compositions related to targeting tumors and wounds” (Sanford-Burnham Medical Research Institute, priority 2006, dated 2016).
Entries after “also recorded” stand apart in the source; their conditions may differ. Ends that are not written are not given here.

Experiments:
albumin = albumin (Homo sapiens, UniProt P02768); assay: Aggregate formation in albumin solution (turbidity); assay type: biochemical; details: added to an albumin solution
Source text: (§1) CLT1 contains a sequence of three consecutive hydrophobic residues, LII (leucine-isoleucine-isoleucine). This motif is very similar to the VII sequence (V, valine) which causes proteins to form large insoluble aggregates (Esteras-Chopo et al. 2005). […] The ability of CLT1 to aggregate proteins correlates with its cytotoxicity for human umbilical venous endothelial cells (HUVECs).

fibrin(ogen) = assay: Co-localization of injected peptide with fibrin staining in tumor sections; assay type: in vivo, mouse; details: MDA-MB-435 xenograft sections, i.v. injected peptide
Procedure: The mice were perfused through the heart 3 hours after the peptide injection and tissues removed for examination. For fibrin and fibronectin immunostaining, tissues were fixed with 4% paraformaldehyde and stained with biotinylated mouse fibrin(ogen) antiserum (Nordic Immunological Laboratories) or a polyclonal anti-mouse fibronectin (Chemicon), followed by streptavidin Alexa 594 or anti-rabbit Alexa 594 (Molecular Probes), respectively. For peptide overlay, sections of frozen OCT embedded tissue were incubated with 10 μg/ml fluorescein-conjugated peptide for 30 min at room temperature. Tissue fluorescence was quantified using Image-Pro Plus software. At least two images from representative microscopic fields were analyzed from each tissue sample and data from individual mice that received the same treatment (n=2-8) were pooled.

[1] = test system: human clinical breast cancers; assay: Peptide overlay assay on frozen tumor sections; assay type: binding; details: two clinical breast cancers
Procedure: B16F1 mouse melanoma, Lewis lung carcinoma, C8161 human melanoma, MDA-MB-435 human breast cancer, and PPC-1 human prostate cancer cells (American Type Culture Collection) were maintained in RPMI or DMEM supplemented with 10% FCS. Human tumor cells (1×10^6) were injected into the mammary fat pad or the flank of nude BALB/c nu/nu mice to induce tumors. MMTV PyMT mice were provided by Dr. Robert Oshima (Burnham Institute for Medical Research, La Jolla, Calif.). The MMTV PyMT mice develop breast cancer under the influence of a polyoma middle T antigen driven by the mouse tumor virus promoter (Siegel, P. M., Ryan, E. D., Cardiff, R. D., Muller W. J. (1999) EMBO J., 18, 2149-64). […]
The mice were perfused through the heart 3 hours after the peptide injection and tissues removed for examination. […] Tissue fluorescence was quantified using Image-Pro Plus software. At least two images from representative microscopic fields were analyzed from each tissue sample and data from individual mice that received the same treatment (n=2-8) were pooled.

fibrinogen = target: T1, fibrinogen (Homo sapiens, UniProt P02671+P02675+P02679); assay: Aggregate formation with plasma proteins, light scattering at 600 nm (turbidity); assay type: biochemical
T1 sequence (P02671 20-629 limits assumed): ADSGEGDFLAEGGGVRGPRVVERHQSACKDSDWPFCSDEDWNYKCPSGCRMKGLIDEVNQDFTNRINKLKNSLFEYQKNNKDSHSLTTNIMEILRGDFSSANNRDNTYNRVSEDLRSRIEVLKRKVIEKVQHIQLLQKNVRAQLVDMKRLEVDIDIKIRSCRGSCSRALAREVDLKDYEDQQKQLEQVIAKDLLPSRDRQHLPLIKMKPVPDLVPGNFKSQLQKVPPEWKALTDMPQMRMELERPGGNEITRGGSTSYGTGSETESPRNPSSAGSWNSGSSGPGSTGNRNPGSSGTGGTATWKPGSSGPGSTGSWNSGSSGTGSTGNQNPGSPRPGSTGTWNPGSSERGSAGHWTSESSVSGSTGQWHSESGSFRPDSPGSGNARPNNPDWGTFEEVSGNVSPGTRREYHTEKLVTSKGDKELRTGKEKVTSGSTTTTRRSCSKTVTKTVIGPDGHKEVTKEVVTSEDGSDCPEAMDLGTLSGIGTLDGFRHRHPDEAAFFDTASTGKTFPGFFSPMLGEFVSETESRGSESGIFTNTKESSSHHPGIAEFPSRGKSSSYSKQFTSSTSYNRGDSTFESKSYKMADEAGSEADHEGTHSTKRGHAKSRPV
T1 sequence (P02675 31-491): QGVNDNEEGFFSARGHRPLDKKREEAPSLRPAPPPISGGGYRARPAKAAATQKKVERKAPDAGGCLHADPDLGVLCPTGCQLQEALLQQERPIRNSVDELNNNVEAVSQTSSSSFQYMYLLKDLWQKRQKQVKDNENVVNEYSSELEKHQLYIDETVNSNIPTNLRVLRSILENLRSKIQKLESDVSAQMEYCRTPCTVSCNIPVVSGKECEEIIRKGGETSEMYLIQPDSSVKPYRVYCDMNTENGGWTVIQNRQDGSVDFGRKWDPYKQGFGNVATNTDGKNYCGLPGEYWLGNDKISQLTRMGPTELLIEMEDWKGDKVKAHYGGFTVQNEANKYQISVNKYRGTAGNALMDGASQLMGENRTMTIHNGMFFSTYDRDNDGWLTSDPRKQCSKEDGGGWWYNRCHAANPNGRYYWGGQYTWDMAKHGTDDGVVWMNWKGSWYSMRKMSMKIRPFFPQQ
T1 sequence (P02679 27-453): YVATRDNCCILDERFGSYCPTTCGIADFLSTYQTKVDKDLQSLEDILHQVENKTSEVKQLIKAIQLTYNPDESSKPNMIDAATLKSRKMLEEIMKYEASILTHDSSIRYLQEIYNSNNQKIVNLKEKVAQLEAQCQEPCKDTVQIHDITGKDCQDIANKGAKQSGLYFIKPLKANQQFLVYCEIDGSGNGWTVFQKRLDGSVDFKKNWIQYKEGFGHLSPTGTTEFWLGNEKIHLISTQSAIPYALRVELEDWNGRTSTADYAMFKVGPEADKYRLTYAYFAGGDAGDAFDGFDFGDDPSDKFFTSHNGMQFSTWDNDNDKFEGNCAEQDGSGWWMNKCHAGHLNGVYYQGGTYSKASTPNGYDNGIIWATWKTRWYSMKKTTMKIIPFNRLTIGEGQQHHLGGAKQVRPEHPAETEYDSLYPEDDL
Source text: as §1

fibronectin = assay: as above; assay type: biochemical
Source text: as §1

With “CGLIIQKNEC (also: cyclic, ring type not given here, fluorescein conjugate, site not given here) [CLT1, cyclic decapeptide from phage library screened on plasma clots; tested as fluorescein conjugate]” the “aggregate formation in albumin solution” value (albumin) was “not amyloidogenic”, the “co-localization of peptide fluorescence with fibrin staining” value (fibrin(ogen)) was “co-localized; also recorded: overlapping distribution” and the overlay binding [1] was “positive”. For the same sequence, the “aggregate formation with fibrinogen” value (fibrinogen) was “form aggregates” and the “aggregate formation with fibronectin” value (fibronectin) was “form aggregates”.
